From PubChem BioAssay (NCI) come the findings set out here.

The structures appear in SMILES notation.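 Assay format: 96-well plates, 48-hour exposure. TGI: concentration producing complete growth inhibition.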 Where only a bound is given, the exact number is not on record here.

Some test systems named below: MDA-N; NCI-H522 lung; MALME-3M melanoma; BT-549 breast; SN12C renal; SW-620 colon; U251 CNS; COLO 205 colon; NCI-H460 lung; HCT-15 colon.
What all share (assay): DTP human tumour cell line panel, 48 h

As usually defined, the TGI is the concentration giving total growth inhibition.

As for `COc1ccc(NC(C)=O)cc1N1C(=O)/C(=C\c2cccc(Oc3ccccc3)c2)SC1c1ccccc1` (stereo not given), the TGI was 81.9 µM with MDA-N; more than 100 µM in the assay on NCI-H522 lung; more than 100 µM with MALME-3M melanoma; more than 100 µM in the assay on BT-549 breast; 64.6 µM in the assay on SN12C renal; 71.1 µM in the assay on SW-620 colon. Further, the TGI in the assay on U251 CNS is more than 100 µM; with COLO 205 colon it was 39.9 µM; with NCI-H460 lung, more than 100 µM; in the assay with HCT-15 colon it was more than 100 µM.

For the molecule `Cc1cccc(/C=C2\CCCCCC2=O)c1`, the TGI in the assay with MDA-N, in the assay with NCI-H522 lung, in the assay with MALME-3M melanoma, in the assay on BT-549 breast, in the assay with SN12C renal and with SW-620 colon was more than 100 µM each time. Moreover, the TGI in the assay with U251 CNS, in the assay on COLO 205 colon, in the assay on NCI-H460 lung and in the assay with HCT-15 colon was more than 100 µM each time.

Take `Nc1c(O)c(C(=O)O)cc2ccccc12`: the TGI in the assay on MDA-N was 32.3 µM; in the assay on NCI-H522 lung it was 54.2 µM; in the assay with MALME-3M melanoma, 29.6 µM; in the assay with BT-549 breast, 60.3 µM; with SN12C renal, more than 100 µM; in the assay on SW-620 colon it was 32.3 µM. The TGI with U251 CNS is more than 100 µM; in the assay with COLO 205 colon, 64.1 µM; in the assay on NCI-H460 lung, more than 100 µM; with HCT-15 colon, more than 100 µM.

On to `COc1cc2c3c4c1OCc1c5c(cc(c1-4)CC3[N+](C)(C)CC2)OCO5` (stereo not given), for which the TGI was more than 100 µM in the assay on MDA-N; 98 µM in the assay on NCI-H522 lung; more than 100 µM in the assay on MALME-3M melanoma; 12.3 µM with BT-549 breast; 39.4 µM with SN12C renal; more than 100 µM with SW-620 colon. For the same molecule, the TGI with U251 CNS is more than 64.1 µM; with COLO 205 colon, more than 100 µM; with NCI-H460 lung, more than 100 µM; with HCT-15 colon, more than 100 µM.

Regarding `Cc1ccc(S(=O)(=O)NC(=O)NCC(=O)O)cc1`, the TGI in the assay on MDA-N, in the assay on NCI-H522 lung, with MALME-3M melanoma, in the assay on BT-549 breast, with SN12C renal and in the assay on SW-620 colon was more than 100 µM each time. Moreover, the TGI in the assay with U251 CNS, in the assay with COLO 205 colon, in the assay on NCI-H460 lung and in the assay on HCT-15 colon was more than 100 µM throughout.

Take `COc1ccc(-c2cc(-c3ccccc3)nc(N)n2)c(O)c1`: the TGI with MDA-N is more than 100 µM; in the assay with NCI-H522 lung it was more than 100 µM; in the assay on MALME-3M melanoma, more than 100 µM; with BT-549 breast, more than 29.3 µM; in the assay on SN12C renal, more than 100 µM; in the assay with SW-620 colon, more than 100 µM. The TGI in the assay with U251 CNS, with COLO 205 colon, in the assay with NCI-H460 lung and in the assay on HCT-15 colon was more than 100 µM throughout.

As to `CCCCCCCCC(=O)NCCN(CCN)C(=O)CCCCCCCC`, the TGI with MDA-N came to 11.6 µM; in the assay on NCI-H522 lung, 7.21 µM; in the assay on MALME-3M melanoma, 33.6 µM; with BT-549 breast, 22.8 µM; in the assay with SN12C renal, 24.7 µM; in the assay with SW-620 colon, 6.31 µM. For the same molecule, the TGI turned out to be 9.26 µM in the assay with U251 CNS, 6.72 µM with COLO 205 colon, 19.7 µM with NCI-H460 lung and 10.3 µM in the assay on HCT-15 colon.

In the case of `CCCNC(=O)c1cc(NC(=O)c2cc(NC(=O)CCS(=O)(=O)OC)cn2C)cn1C`, the TGI is more than 69.8 µM in the assay on MDA-N; 6.07 µM in the assay on NCI-H522 lung; 24.6 µM in the assay with MALME-3M melanoma; 8.54 µM with BT-549 breast; 29.7 µM in the assay on SN12C renal; more than 100 µM in the assay on SW-620 colon. Further, the TGI in the assay with U251 CNS is more than 100 µM; in the assay on COLO 205 colon, 22.7 µM; in the assay with NCI-H460 lung it was more than 100 µM; in the assay on HCT-15 colon, more than 100 µM.

`COc1cc(C2SC(N)=Nc3c2c(C)nn3C(=O)c2ccc(Cl)cc2)ccc1O` (stereo not given): the TGI with MDA-N was 0.406 µM; in the assay with NCI-H522 lung, more than 10 µM; in the assay with MALME-3M melanoma, more than 10 µM; in the assay with BT-549 breast, more than 10 µM; in the assay with SN12C renal, more than 10 µM; with SW-620 colon, more than 10 µM. For the same molecule, the TGI with U251 CNS, with COLO 205 colon, in the assay on NCI-H460 lung and in the assay with HCT-15 colon was more than 10 µM each time.

In the case of `O=C(NC(Cc1ccccc1)P(=O)(O)c1ccccc1)OCc1ccccc1` (stereo not given), the TGI in the assay on MDA-N, in the assay with NCI-H522 lung, in the assay with MALME-3M melanoma, in the assay with BT-549 breast, in the assay with SN12C renal and with SW-620 colon was more than 100 µM each time. The TGI with U251 CNS, in the assay on COLO 205 colon, in the assay with NCI-H460 lung and with HCT-15 colon was more than 100 µM throughout.

For the molecule `OCC1(CNc2cc(Cl)ncn2)CCC1`, the TGI in the assay on MDA-N, in the assay on NCI-H522 lung, in the assay on MALME-3M melanoma, in the assay with BT-549 breast, in the assay with SN12C renal and in the assay with SW-620 colon was more than 100 µM in each case. Further, the TGI in the assay with U251 CNS, in the assay on COLO 205 colon, in the assay with NCI-H460 lung and in the assay on HCT-15 colon was more than 100 µM each time.

On to `CSc1nc(Cl)c2c(n1)Sc1nc3ccccc3n1N=C2`, for which the TGI in the assay with MDA-N was 59.9 µM; in the assay on NCI-H522 lung, 39.4 µM; in the assay on MALME-3M melanoma, 68.2 µM; in the assay on BT-549 breast, 43.3 µM; in the assay with SN12C renal, more than 100 µM; in the assay with SW-620 colon, 29.3 µM. In addition, the TGI with U251 CNS is more than 100 µM; with COLO 205 colon it was 57.5 µM; in the assay on NCI-H460 lung it was more than 100 µM; in the assay on HCT-15 colon it was 36.7 µM.

For the molecule `CCOC(=O)c1c[nH]c2cc3c(cc2c1=O)CCS3`, the TGI with MDA-N, in the assay on NCI-H522 lung, in the assay with MALME-3M melanoma, in the assay on BT-549 breast, in the assay on SN12C renal and with SW-620 colon was more than 100 µM each time. Further, the TGI in the assay on U251 CNS, with COLO 205 colon, with NCI-H460 lung and in the assay with HCT-15 colon was more than 100 µM throughout.

As to `Cc1ccc(NCc2nnc3c(-c4ccccc4)nc4ccccc4n23)cc1`, the TGI in the assay on MDA-N, in the assay with NCI-H522 lung, in the assay with MALME-3M melanoma, in the assay with BT-549 breast, with SN12C renal and in the assay on SW-620 colon was more than 100 µM throughout. The TGI was more than 100 µM in the assay with U251 CNS, 86.6 µM in the assay on COLO 205 colon, more than 100 µM with NCI-H460 lung and more than 100 µM in the assay on HCT-15 colon.
